Reference: patent US20250325508A1, “MODULATORS OF PROTEASOME DYNAMICS AND/OR FUNCTION, COMPOSITIONS, METHODS, AND THERAPEUTIC USES THEREOF” (TECHNION RESEARCH & DEVELOPMENT FOUNDATION LIMITED, priority 2022, published 2025)

Experiments:
Type in all cases: cell-based, human
HeLa cells = assay: Proteomic mass-spectrometric analysis of cellular protein levels; conditions: St.+LMB or St.+YWF vs Cont.
Method: 2-3 mg of cell extract protein in 8 M Urea and 100 mM ammonium bicarbonate, were incubated with DTT (2.8 mM; 30 min at 60° C.), modified with iodoacetamide (8.8 mM; 30 min at room temperature in the dark), and digested (overnight at 37° C.) with modified trypsin (Promega; 1:50 enzyme-to-substrate ratio) in 2 M Urea and 25 mM ammonium bicarbonate. Additional second trypsinization was carried out for 4 h. The tryptic peptides were desalted using Sep-Pak C18 (Waters) and dried. 10 μg of protein were used for proteome analysis as described under Mass spectrometry.
Tryptic peptides were analyzed by LC-MS/MS using a Q Exactive plus mass spectrometer (Thermo Fisher Scientific) fitted with a capillary HPLC (easy nLC 1000, Thermo). […]
The mass spectrometry raw data were analyzed by the MaxQuant software (version 1.4.1.2, http://www.maxquant.org) for peak picking and quantification. […] The MaxQuant software was used for label-free semi-quantitative analysis [based on extracted ion currents (XICs) of peptides], enabling quantification from each LC/MS run for each peptide identified in any of the experiments. In samples that were SILAC-labeled, quantification was also carried out using the MaxQuant software. […]

autophagy = assay: Autophagy (LC3 lipidation, RFP-GFP-LC3 autophagic flux); conditions: LC3 Western blot and GFP-RFP-LC3 autophagic flux, HeLa cells
Method: Cells were washed twice with ice cold PBS and scraped into lysis buffer (50 mM Tris-HCl, pH 7.4, 130 mM NaCl, 0.5% NP-40) supplemented with freshly added protease inhibitor cocktail, 5 mM ATP, 10 mM iodoacetamide, and 5 mM N-ethyl maleimide. Protein concentration was measured by the BCA assay according to the manufacturer's instructions (Pierce, Rockford, IL). 30 μg of cellular protein were resolved via SDS-PAGE, transferred to a nitrocellulose membrane and immunoblotted with the appropriate antibody. Cells stably expressing the fusion of RFP-GFP-LC3 were treated as described and were visualized live, using high-throughput fluorescence microscopy (IXM-C, Molecular Devices) under controlled environment (21% O2, 5% CO2, 37° C.). Analysis of autophagic flux was made based on the differential signal in the green and red channels, as previously described [[…], et al. (2009). Cell 136, 521-534] Due to the instability of GFP in acidic pH, only RFP retains its fluorescence in the acidic lysosome, while both are visible in the autophagosome. The RFP: GFP puncta ratio is indicating the extent of autophagy activation, or flux. The figure presents mean+/-SD and Student's T-Test p-values of three replicates.

Ubiquitin conjugates = Ubiquitin conjugates levels (in-cell Western); conditions: stress, HeLa cells
Method: Cells were seeded in a 96-well plate at a density of 15,000 cells/well. ˜36 h later, cells were treated as described and were visualized live, using high-throughput fluorescence microscopy (IXM-C, Molecular Devices) under a controlled environment (21% O2, 5% CO2, 37° C.). Hoechst 33342 was used to stain nuclei of all cells, and SYTOX™ (Thermo) was used to stain dead cells. Data analysis was performed using the Live/Dead module of the MetaXpress software (Molecular Devices). […] For ubiquitination, the inventors used in-cell Western blotting using an anti-Ub-conj [O. Braten et al., Proc. Natl. Acad. Sci. 113, E4639-47 (2016), and a secondary fluorescent antibody. Intensities were quantified using Li-Cor imager and software (Odyssey).

`CCC(=C/[C@H](C)C/C=C/C(C)=C/[C@@H](C)C(=O)[C@@H](C)[C@H](O)[C@@H](C)C/C(C)=C/C(=O)O)/C=C/[C@@H]1OC(=O)C=C[C@@H]1C` [Leptomycin B] was tested, and the “accelerated degradation of cellular proteins upon starvation” value (HeLa cells) was “accelerated degradation was prevented”, the autophagy under starvation (autophagy) was “not inhibited” and the “degradation and depletion of ubiquitin adducts” value (Ubiquitin conjugates) was “inhibited degradation and depletion of ubiquitin adducts”.
